Where two headings read alike, the source gives them in different places.
Assays:
Assay in all cases: Kinase selectivity, P33-radiolabeled assay
Assay type in all cases: biochemical
JNK2 = target: T1, JNK2 (Homo sapiens, UniProt P45984); conditions: 10 μM ATP
T1 construct: purchased Reaction Biology Corp
How it was run: (§1)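 Each enzyme was exposed to 10 μM compound, with duplicate measurements, in reactions containing 10 μM ATP. Numbers are remaining activity as a percent of the vehicle (DMSO) signal.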

IGF1R = target: T2, IGF1R (Homo sapiens, UniProt P08069)
T2 construct: purchased Reaction Biology Corp
T2 sequence (P08069 31-1367): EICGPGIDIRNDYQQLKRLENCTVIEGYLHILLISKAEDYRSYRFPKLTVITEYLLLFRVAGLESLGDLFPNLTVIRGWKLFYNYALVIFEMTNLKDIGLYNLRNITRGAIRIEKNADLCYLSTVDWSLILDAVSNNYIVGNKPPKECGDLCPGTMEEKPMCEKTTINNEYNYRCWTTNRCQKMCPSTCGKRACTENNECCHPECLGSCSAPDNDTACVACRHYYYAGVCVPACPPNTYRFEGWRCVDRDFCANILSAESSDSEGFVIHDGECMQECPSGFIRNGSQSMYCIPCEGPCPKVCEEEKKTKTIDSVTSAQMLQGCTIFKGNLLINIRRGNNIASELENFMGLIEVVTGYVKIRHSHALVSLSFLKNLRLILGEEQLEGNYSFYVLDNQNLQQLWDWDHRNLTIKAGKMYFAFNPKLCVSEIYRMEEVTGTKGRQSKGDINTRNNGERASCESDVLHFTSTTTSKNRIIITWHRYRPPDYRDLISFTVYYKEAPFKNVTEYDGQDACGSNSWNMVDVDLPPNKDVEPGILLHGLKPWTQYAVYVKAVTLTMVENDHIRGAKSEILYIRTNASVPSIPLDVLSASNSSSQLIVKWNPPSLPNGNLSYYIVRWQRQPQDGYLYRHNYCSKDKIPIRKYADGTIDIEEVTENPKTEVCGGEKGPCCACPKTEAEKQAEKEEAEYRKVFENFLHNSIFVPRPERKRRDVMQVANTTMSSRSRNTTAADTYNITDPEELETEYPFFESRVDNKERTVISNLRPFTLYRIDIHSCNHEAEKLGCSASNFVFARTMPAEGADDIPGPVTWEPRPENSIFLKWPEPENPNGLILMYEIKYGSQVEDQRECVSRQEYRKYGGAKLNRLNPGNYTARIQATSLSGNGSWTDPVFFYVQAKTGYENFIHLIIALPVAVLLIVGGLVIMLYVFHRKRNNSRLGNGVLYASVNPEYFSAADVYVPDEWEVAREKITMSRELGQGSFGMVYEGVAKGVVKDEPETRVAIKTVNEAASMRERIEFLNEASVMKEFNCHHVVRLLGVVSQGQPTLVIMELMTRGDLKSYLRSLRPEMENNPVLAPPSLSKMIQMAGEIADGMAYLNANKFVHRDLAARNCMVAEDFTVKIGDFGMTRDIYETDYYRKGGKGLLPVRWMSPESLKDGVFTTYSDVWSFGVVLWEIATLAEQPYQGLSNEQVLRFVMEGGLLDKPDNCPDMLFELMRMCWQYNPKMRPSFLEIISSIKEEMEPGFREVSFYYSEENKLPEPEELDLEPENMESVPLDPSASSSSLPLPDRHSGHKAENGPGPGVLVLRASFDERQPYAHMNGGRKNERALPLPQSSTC
How it was run: as §1

MLCK/MYLK = target: T3, MLCK/MYLK (Homo sapiens, UniProt Q15746); conditions: 10 μM ATP
T3 construct: purchased Reaction Biology Corp
How it was run: as §1

PKCepsilon = target: T4, PKCepsilon (Homo sapiens, UniProt Q02156); conditions: 10 μM ATP
T4 construct: purchased Reaction Biology Corp
T4 sequence (Q02156 1-737): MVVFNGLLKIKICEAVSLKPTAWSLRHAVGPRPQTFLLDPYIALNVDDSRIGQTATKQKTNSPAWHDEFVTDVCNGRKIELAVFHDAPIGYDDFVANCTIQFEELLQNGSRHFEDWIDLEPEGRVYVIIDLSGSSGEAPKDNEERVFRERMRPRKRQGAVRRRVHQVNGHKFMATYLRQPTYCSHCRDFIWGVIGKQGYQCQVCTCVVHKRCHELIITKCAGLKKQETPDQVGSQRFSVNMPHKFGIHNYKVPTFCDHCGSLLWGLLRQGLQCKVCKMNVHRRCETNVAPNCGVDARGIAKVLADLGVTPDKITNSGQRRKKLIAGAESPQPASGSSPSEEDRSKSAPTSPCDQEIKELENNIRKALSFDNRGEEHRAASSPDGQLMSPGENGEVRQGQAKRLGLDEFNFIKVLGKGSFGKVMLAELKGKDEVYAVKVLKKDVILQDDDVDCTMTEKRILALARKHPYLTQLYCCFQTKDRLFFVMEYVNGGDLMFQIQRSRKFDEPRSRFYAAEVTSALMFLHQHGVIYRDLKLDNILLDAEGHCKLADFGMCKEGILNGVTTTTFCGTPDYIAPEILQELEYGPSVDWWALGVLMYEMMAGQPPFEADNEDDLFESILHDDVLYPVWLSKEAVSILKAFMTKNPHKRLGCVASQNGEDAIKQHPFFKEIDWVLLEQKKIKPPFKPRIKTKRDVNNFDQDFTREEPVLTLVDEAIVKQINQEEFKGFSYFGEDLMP
How it was run: as §1

DYRK1/DYRK1A = target: T5, DYRK1/DYRK1A (Homo sapiens, UniProt Q13627); conditions: 10 μM ATP
T5 construct: purchased Reaction Biology Corp
How it was run: as §1

PKCnu/PRKD3 = target: T6, PKCnu/PRKD3 (Homo sapiens, UniProt O94806); conditions: 10 μM ATP
T6 construct: purchased Reaction Biology Corp
T6 sequence (O94806 1-890): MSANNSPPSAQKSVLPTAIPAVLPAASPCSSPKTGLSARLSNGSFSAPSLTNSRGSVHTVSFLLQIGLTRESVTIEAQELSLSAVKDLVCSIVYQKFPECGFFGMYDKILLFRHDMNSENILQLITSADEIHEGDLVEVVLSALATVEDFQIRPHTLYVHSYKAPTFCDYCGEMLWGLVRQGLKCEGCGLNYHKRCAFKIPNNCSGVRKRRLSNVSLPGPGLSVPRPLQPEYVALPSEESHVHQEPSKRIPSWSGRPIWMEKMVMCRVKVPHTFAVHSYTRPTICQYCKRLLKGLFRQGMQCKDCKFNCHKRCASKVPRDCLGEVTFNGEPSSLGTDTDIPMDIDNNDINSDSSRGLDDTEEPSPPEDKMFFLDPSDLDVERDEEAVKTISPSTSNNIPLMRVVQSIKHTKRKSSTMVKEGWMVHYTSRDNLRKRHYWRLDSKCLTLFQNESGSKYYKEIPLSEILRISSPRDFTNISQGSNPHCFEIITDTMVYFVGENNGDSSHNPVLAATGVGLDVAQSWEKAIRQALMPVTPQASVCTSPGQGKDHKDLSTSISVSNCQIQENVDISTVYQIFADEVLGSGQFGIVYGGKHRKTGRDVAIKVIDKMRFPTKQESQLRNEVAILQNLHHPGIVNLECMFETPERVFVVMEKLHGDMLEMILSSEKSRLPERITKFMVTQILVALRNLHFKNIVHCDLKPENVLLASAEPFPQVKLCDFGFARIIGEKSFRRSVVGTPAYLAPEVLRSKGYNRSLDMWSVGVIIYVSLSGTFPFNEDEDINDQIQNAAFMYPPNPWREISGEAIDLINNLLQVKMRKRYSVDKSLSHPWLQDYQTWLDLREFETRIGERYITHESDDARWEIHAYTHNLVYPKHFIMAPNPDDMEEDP
How it was run: as §1

CDK6/cyclin D3 = target: T7, CDK6/cyclin D3 (Homo sapiens, UniProt Q00534); conditions: 10 μM ATP
T7 construct: purchased Reaction Biology Corp
T7 sequence (Q00534 whole entry): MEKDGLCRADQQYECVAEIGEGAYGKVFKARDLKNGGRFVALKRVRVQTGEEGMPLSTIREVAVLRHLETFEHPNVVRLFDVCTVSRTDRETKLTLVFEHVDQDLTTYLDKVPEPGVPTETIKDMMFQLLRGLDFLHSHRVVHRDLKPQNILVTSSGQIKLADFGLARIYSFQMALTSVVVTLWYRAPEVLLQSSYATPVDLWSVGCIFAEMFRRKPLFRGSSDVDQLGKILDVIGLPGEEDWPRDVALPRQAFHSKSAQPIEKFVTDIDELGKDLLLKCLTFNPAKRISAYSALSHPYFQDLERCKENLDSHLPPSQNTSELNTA
T7 sequence (P30281 whole entry partner): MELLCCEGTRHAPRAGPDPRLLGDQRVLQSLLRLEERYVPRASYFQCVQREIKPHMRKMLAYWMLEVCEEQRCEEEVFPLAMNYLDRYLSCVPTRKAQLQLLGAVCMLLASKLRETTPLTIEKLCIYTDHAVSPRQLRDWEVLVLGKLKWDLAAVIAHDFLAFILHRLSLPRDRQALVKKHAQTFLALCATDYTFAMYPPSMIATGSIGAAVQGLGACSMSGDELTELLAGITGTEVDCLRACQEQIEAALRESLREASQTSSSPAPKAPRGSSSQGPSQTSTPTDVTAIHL
How it was run: as §1

FGFR3 = target: T8, FGFR3 (Homo sapiens, UniProt P22607); conditions: 10 μM ATP
T8 construct: purchased Reaction Biology Corp
T8 sequence (P22607 23-806): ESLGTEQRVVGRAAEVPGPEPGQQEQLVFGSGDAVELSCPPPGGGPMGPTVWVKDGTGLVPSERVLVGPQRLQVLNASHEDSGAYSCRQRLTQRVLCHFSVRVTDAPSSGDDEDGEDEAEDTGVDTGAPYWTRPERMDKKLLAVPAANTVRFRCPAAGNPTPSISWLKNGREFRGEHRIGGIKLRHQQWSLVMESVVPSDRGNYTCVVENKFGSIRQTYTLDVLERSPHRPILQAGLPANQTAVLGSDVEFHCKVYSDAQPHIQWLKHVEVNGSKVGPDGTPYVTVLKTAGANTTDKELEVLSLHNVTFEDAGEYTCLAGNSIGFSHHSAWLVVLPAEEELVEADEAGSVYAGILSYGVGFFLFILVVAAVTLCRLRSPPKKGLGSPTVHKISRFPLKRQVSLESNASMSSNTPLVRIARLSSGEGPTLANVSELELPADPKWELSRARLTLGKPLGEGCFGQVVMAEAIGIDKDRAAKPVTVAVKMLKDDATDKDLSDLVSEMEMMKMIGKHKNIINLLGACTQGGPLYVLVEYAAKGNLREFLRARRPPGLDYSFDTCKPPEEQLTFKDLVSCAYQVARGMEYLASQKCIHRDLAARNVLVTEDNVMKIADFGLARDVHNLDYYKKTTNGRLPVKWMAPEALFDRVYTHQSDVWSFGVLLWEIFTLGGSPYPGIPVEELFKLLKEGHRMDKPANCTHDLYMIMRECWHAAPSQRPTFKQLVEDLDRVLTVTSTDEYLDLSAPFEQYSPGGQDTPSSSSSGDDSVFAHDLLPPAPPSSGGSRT
How it was run: as §1

DYRK4 = target: T9, DYRK4 (Homo sapiens, UniProt Q9NR20); conditions: 10 μM ATP
T9 construct: purchased Reaction Biology Corp
T9 sequence (Q9NR20 1-520): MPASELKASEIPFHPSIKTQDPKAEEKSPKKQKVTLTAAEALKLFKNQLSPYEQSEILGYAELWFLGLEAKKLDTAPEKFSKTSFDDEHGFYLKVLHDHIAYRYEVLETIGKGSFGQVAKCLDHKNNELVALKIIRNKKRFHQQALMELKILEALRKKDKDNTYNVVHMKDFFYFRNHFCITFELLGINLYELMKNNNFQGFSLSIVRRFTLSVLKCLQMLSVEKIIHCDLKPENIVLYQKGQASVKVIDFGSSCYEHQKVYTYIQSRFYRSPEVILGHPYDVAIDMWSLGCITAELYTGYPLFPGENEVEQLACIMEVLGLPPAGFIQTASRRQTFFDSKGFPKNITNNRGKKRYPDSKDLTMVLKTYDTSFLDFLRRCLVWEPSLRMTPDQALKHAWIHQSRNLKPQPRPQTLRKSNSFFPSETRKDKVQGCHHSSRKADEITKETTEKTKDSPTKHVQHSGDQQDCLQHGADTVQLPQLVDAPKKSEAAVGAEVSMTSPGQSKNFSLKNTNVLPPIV
How it was run: as §1

[1] = read-out: % Enzyme Activity (relative to DMSO controls) AVG
[2] = read-out: % Enzyme Activity (relative to DMSO controls) Data 1
[3] = read-out: % Enzyme Activity (relative to DMSO controls) Data 2

T1 sequence (P45984 whole entry): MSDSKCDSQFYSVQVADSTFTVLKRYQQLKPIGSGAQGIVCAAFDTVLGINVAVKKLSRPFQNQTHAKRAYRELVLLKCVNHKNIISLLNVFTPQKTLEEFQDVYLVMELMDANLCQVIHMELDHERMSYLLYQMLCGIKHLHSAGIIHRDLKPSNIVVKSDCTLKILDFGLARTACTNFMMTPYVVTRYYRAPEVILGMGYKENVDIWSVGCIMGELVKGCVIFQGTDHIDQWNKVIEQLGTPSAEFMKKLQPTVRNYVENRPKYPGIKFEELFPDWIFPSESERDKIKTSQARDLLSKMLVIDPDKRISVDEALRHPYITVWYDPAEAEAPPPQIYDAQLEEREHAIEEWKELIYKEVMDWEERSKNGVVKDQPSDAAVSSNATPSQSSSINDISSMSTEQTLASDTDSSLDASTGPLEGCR

CC(C)(C)C(=O)N1N=CC[C@H]1c1ccccc1 [GSK′963]
remaining activity at 10 µM (JNK2; [1]): 100% | remaining activity at 10 µM (JNK2; [2]): 96.4% | remaining activity at 10 µM (JNK2; [3]): 104% | remaining activity at 10 µM (IGF1R; 10 uM, 10 μM ATP, read-out: % Enzyme Activity (relative to DMSO controls) AVG): 103% | remaining activity at 10 µM (IGF1R; 10 uM, 10 μM ATP, read-out: % Enzyme Activity (relative to DMSO controls) Data 2): 104% | remaining activity at 10 µM (IGF1R; [2]): 101% | remaining activity at 10 µM (MLCK/MYLK; [1]): 96.1% | remaining activity at 10 µM (MLCK/MYLK; [2]): 97.1% | remaining activity at 10 µM (MLCK/MYLK; [3]): 95.2% | remaining activity at 10 µM (PKCepsilon; [1]): 105% | remaining activity at 10 µM (PKCepsilon; [2]): 103% | remaining activity at 10 µM (PKCepsilon; [3]): 106% | remaining activity at 10 µM (DYRK1/DYRK1A; [1]): 103% | remaining activity at 10 µM (DYRK1/DYRK1A; [2]): 103% | remaining activity at 10 µM (DYRK1/DYRK1A; [3]): 103% | remaining activity at 10 µM (PKCnu/PRKD3; [1]): 101% | remaining activity at 10 µM (PKCnu/PRKD3; [2]): 103% | remaining activity at 10 µM (PKCnu/PRKD3; [3]): 100% | remaining activity at 10 µM (CDK6/cyclin D3; [1]): 86.9% | remaining activity at 10 µM (CDK6/cyclin D3; [2]): 84.5% | remaining activity at 10 µM (CDK6/cyclin D3; [3]): 89.3% | remaining activity at 10 µM (FGFR3; [1]): 99.4% | remaining activity at 10 µM (FGFR3; [2]): 103% | remaining activity at 10 µM (FGFR3; [3]): 95.7% | remaining activity at 10 µM (DYRK4; [1]): 101% | remaining activity at 10 µM (DYRK4; [2]): 101% | remaining activity at 10 µM (DYRK4; [3]): 101%
